Assay results from US10219513B2, “Safening 4-amino-3-chloro-6-(4-chloro-2-fluoro-3-methoxyphenyl)-5-fluoropyridine-2-carboxylic acid compositions in Brassica species and methods of use thereof” (Dow AgroSciences LLC, priority 2016, dated 2019).
Several values for one entry are separate records, joined by “and”; a condition that tells them apart may be missing. Identical values can stand only once.

Assays:
[1] = test system: Brassica juncea (Juncea canola or brown mustard, BRSJU); assay: Greenhouse postemergence application, visual injury after 20-22 d, BRSJU
Description: (§1) Seeds of the desired test plant species were planted in Sun Gro MetroMix® 306 planting mixture, which typically has a pH of 6.0 to 6.8 and an organic matter content of about 30 percent, in plastic pots with a surface area of 103.2 square centimeters (cm^2). […] The plants were grown for 7-36 days (d) in a greenhouse with an approximate 14-hour (h) photoperiod which was maintained at about 23° C. during the day and 22° C. during the night. Nutrients and water were added on a regular basis and supplemental lighting was provided with overhead metal halide 1000-Watt lamps as necessary. The plants were employed for testing when they reached the second or third true leaf stage.
(§2) An aliquot of formulated benzyl 4-amino-3-chloro-6-(4-chloro-2-fluoro-3-methoxyphenyl)-5-fluoropyridine-2-carboxylate (florpyrauxifen-benzyl; 300 grams active ingredient per liter (g ai/L) suspension concentrate (SC)) was placed in a 25 mL glass vial and diluted in a volume of 1.25% (v/v) aqueous Agri-dex crop oil concentrated to obtain a stock solution. […] The concentrated stock solutions were diluted with an aqueous mixture of 1.25% v/v of aqueous Agri-dex crop oil concentrate to provide the appropriate application rates. Compound requirements are based upon a 12 milliliter (mL) application volume at a rate of 187 liters per hectare (L/ha). Stock solutions of the formulated materials were prepared following the same procedure. Spray solutions of the compound mixtures were prepared by adding the stock solutions to the appropriate amount of dilution solution to form a 12 mL spray solution. Formulated compounds were applied to the plant material with an overhead Mandel track sprayer equipped with 8002E nozzles calibrated to deliver 187 L/ha over an application area of 0.503 square meters (m^2) at a spray height of 18 inches (43 centimeters (cm)) above average plant canopy. Control plants were sprayed in the same manner with the solvent blank.
(§3) The treated plants and control plants were placed in a greenhouse as described above and watered by sub-irrigation to prevent wash-off of the test compounds. After 20-22 d, the condition of the test plants as compared with that of the control plants was determined visually and scored on a scale of 0 to 100 percent where 0 corresponds to no injury and 100 corresponds to complete kill. Colby's equation was used to determine the herbicidal effects expected from the mixtures.
(§4) Benzyl 4-amino-3-chloro-6-(4-chloro-2-fluoro-3-methoxyphenyl)-5-fluoropyridine-2-carboxylate (florpyrauxifen-benzyl, 300 g ai/L SC) was combined in two-, three-, and four-way mixtures with one or more of the following: clopyralid-olamine (as Lontrel™ 35A Herbicidal Concentrate), quinclorac (as Facet 75DF), isoxadifen-ethyl (100 g/L SC), cloquintocet-mexyl (120 g/L EC) or mefenpyr-diethyl (as mefenpyr-diethyl 15WP). The mixtures were applied to kale/Chinese kale (Brassica alboglabra, BRSAG), Juncea canola or brown mustard (Brassica juncea, BRSJU), rutabaga (Brassica napus var. napobrassica, BRSNA), all varieties of canola and oilseed rape (Brassica napus, BRSNN), Nexera™ canola (Brassica napus, BRSNN-NEX), winter oilseed rape (Brassica napus, BRSNW), Roundup Ready® canola (Brassica napus, RR-BRSNN), and turnip or Polish canola (Brassica rapa, BRSRR), and the phytotoxicity of the compositions was measured.
(§5) Colby's equation was used to determine the herbicidal effects expected from the mixtures evaluated in the described trials (Colby, S. R. Calculation of the synergistic and antagonistic response of herbicide combinations. Weeds 1967, 15, 20-22.).
(§6) The following equation was used to calculate the expected activity of mixtures containing two active ingredients, A and B: Expected=A+B−(A×B/100) • A=observed efficacy of active ingredient A at the same concentration as used in the mixture; • B=observed efficacy of active ingredient B at the same concentration as used in the mixture.

[2] = test system: Brassica napus var. napobrassica (rutabaga, BRSNA); assay: Greenhouse postemergence application, visual injury after 20-22 d, BRSNA
Description: as §1, §2, §3, §4, §5, §6

[3] = test system: Brassica napus (Nexera canola, BRSNN-NEX); assay: Greenhouse postemergence application, visual injury after 20-22 d, BRSNN-NEX
Description: as §1, §2, §3, §4, §5, §6

[4] = florpyrauxifen-benzyl 2.5 g ai/ha alone
[5] = florpyrauxifen-benzyl 5 g ai/ha alone
[6] = florpyrauxifen-benzyl 10 g ai/ha alone
[7] = florpyrauxifen-benzyl alone 2.5 g ai/ha
[8] = florpyrauxifen-benzyl alone 5 g ai/ha
[9] = florpyrauxifen-benzyl alone 10 g ai/ha
[10] = postemergence application, greenhouse, application rate (g ai/ha) varies
[11] = isoxadifen-ethyl 5 g ai/ha alone
[12] = isoxadifen-ethyl 10 g ai/ha alone
[13] = isoxadifen-ethyl 20 g ai/ha alone
[14] = isoxadifen-ethyl 40 g ai/ha alone

## COc1c(Cl)ccc(-c2nc(C(=O)OCc3ccccc3)c(Cl)c(N)c2F)c1F [Florpyrauxifen-benzyl, benzyl 4-amino-3-chloro-6-(4-chloro-2-fluoro-3-methoxyphenyl)-5-fluoropyridine-2-carboxylate]
[1]; BRSJU, 2.5 g ai/ha
  % Visual Injury Obs: 7%
[1]; BRSJU, 5 g ai/ha
  % Visual Injury Obs: 12%
[1]; BRSJU, 10 g ai/ha
  % Visual Injury Obs: 18%
[1]; BRSJU, florpyrauxifen-benzyl alone 2.5 g ai/ha
  Obs % visual injury: 7%
[1]; BRSJU, florpyrauxifen-benzyl alone 5 g ai/ha
  Obs % visual injury: 12%
[1]; BRSJU, florpyrauxifen-benzyl alone 10 g ai/ha
  Obs % visual injury: 18%
[1]; [4]
  % Visual Injury BRSJU Obs: 7%
  % Visual Injury Obs: 7%
[1]; [5]
  % Visual Injury BRSJU Obs: 12%
  % Visual Injury Obs: 12%
[1]; [6]
  % Visual Injury BRSJU Obs: 18%
  % Visual Injury Obs: 18%
[1]; [7]
  Obs % visual injury BRSJU: 7%
[1]; [8]
  Obs % visual injury BRSJU: 12%
[1]; [9]
  Obs % visual injury BRSJU: 18%
[2]; BRSNA, 2.5 g ai/ha
  % Visual Injury Obs: 4%
[2]; BRSNA, 5 g ai/ha
  % Visual Injury Obs: 4%
[2]; BRSNA, 10 g ai/ha
  % Visual Injury Obs: 13%
[2]; BRSNA, florpyrauxifen-benzyl alone 2.5 g ai/ha
  Obs % visual injury: 4%
[2]; BRSNA, florpyrauxifen-benzyl alone 5 g ai/ha
  Obs % visual injury: 4%
[2]; BRSNA, florpyrauxifen-benzyl alone 10 g ai/ha
  Obs % visual injury: 13%
[2]; [4]
  % Visual Injury BRSNA Obs: 4%
  % Visual Injury Obs: 4%
[2]; [5]
  % Visual Injury BRSNA Obs: 4%
  % Visual Injury Obs: 4%
[2]; [6]
  % Visual Injury BRSNA Obs: 13%
  % Visual Injury Obs: 13%
[2]; [7]
  Obs % visual injury BRSNA: 4%
[2]; [8]
  Obs % visual injury BRSNA: 4%
[2]; [9]
  Obs % visual injury BRSNA: 13%
[2]; [10]
  % Visual Injury BRSNA Obs: 4% and 13%
[3]; BRSNN-NEX, 2.5 g ai/ha
  % Visual Injury Obs: 7%
[3]; BRSNN-NEX, 5 g ai/ha
  % Visual Injury Obs: 12%
[3]; BRSNN-NEX, 10 g ai/ha
  % Visual Injury Obs: 19%
[3]; BRSNN-NEX, florpyrauxifen-benzyl alone 2.5 g ai/ha
  Obs % visual injury: 7%
[3]; BRSNN-NEX, florpyrauxifen-benzyl alone 5 g ai/ha
  Obs % visual injury: 12%
[3]; BRSNN-NEX, florpyrauxifen-benzyl alone 10 g ai/ha
  Obs % visual injury: 19%
[3]; [4]
  % Visual Injury BRSNN-NEX Obs: 7%
  % Visual Injury Obs: 7%
[3]; [5]
  % Visual Injury BRSNN-NEX Obs: 12%
  % Visual Injury Obs: 12%
[3]; [6]
  % Visual Injury BRSNN-NEX Obs: 19%
  % Visual Injury Obs: 19%
[3]; [7]
  Obs % visual injury BRSNN-NEX: 7%
[3]; [8]
  Obs % visual injury BRSNN-NEX: 12%
[3]; [9]
  Obs % visual injury BRSNN-NEX: 19%

## CCOC(=O)C1=NOC(c2ccccc2)(c2ccccc2)C1 [Isoxadifen-ethyl, ethyl 4,5-dihydro-5,5-diphenyl-1,2-oxazole-3-carboxyalte]
[1]; BRSJU, 5 g ai/ha
  % Visual Injury Obs: 0%
[1]; BRSJU, 10 g ai/ha
  % Visual Injury Obs: 0%
[1]; BRSJU, 20 g ai/ha
  % Visual Injury Obs: 0%
[1]; BRSJU, 40 g ai/ha
  % Visual Injury Obs: 0%
[1]; BRSJU, partner alone 5 g ai/ha
  Obs % visual injury: 0%
[1]; BRSJU, partner alone 10 g ai/ha
  Obs % visual injury: 0%
[1]; BRSJU, partner alone 20 g ai/ha
  Obs % visual injury: 0%
[1]; BRSJU, partner alone 40 g ai/ha
  Obs % visual injury: 0%
[1]; [11]
  % Visual Injury Obs: 0%
[1]; [12]
  % Visual Injury Obs: 0%
[1]; [13]
  % Visual Injury Obs: 0%
[1]; [14]
  % Visual Injury Obs: 0%
[1]; [10]
  % Visual Injury BRSJU Obs: 0%
[2]; BRSNA, 5 g ai/ha
  % Visual Injury Obs: 0%
[2]; BRSNA, 10 g ai/ha
  % Visual Injury Obs: 0%
[2]; BRSNA, 20 g ai/ha
  % Visual Injury Obs: 0%
[2]; BRSNA, 40 g ai/ha
  % Visual Injury Obs: 0%
[2]; BRSNA, partner alone 5 g ai/ha
  Obs % visual injury: 0%
[2]; BRSNA, partner alone 10 g ai/ha
  Obs % visual injury: 0%
[2]; BRSNA, partner alone 20 g ai/ha
  Obs % visual injury: 0%
[2]; BRSNA, partner alone 40 g ai/ha
  Obs % visual injury: 0%
[2]; [11]
  % Visual Injury Obs: 0%
[2]; [12]
  % Visual Injury Obs: 0%
[2]; [13]
  % Visual Injury Obs: 0%
[2]; [14]
  % Visual Injury Obs: 0%
[2]; [10]
  % Visual Injury BRSNA Obs: 0%
[3]; BRSNN-NEX, 5 g ai/ha
  % Visual Injury Obs: 0%
[3]; BRSNN-NEX, 10 g ai/ha
  % Visual Injury Obs: 0%
[3]; BRSNN-NEX, 20 g ai/ha
  % Visual Injury Obs: 0%
[3]; BRSNN-NEX, 40 g ai/ha
  % Visual Injury Obs: 0%
[3]; BRSNN-NEX, partner alone 5 g ai/ha
  Obs % visual injury: 0%
[3]; BRSNN-NEX, partner alone 10 g ai/ha
  Obs % visual injury: 0%
[3]; BRSNN-NEX, partner alone 20 g ai/ha
  Obs % visual injury: 0%
[3]; BRSNN-NEX, partner alone 40 g ai/ha
  Obs % visual injury: 0%
[3]; [11]
  % Visual Injury Obs: 0%
[3]; [12]
  % Visual Injury Obs: 0%
[3]; [13]
  % Visual Injury Obs: 0%
[3]; [14]
  % Visual Injury Obs: 0%
[3]; [10]
  % Visual Injury BRSNN-NEX Obs: 0%

## O=C(O)c1c(Cl)ccc2cc(Cl)cnc12 [Quinclorac, 3,7-dichloro-8-quinolinecarboxylic acid]
[1]; BRSJU, 50 g ai/ha
  % Visual Injury Obs: 0%
[1]; BRSJU, 100 g ai/ha
  % Visual Injury Obs: 0%
[1]; BRSJU, 200 g ai/ha
  % Visual Injury Obs: 0%
[1]; BRSJU, partner alone 50 g ai/ha
  Obs % visual injury: 0%
[1]; BRSJU, partner alone 100 g ai/ha
  Obs % visual injury: 0%
[1]; BRSJU, partner alone 200 g ai/ha
  Obs % visual injury: 0%
[1]; [10]
  % Visual Injury BRSJU Obs: 0%
[1]; quinclorac 50 g ai/ha alone
  % Visual Injury BRSJU Obs: 0%
[1]; quinclorac 100 g ai/ha alone
  % Visual Injury BRSJU Obs: 0%
[1]; quinclorac 200 g ai/ha alone
  % Visual Injury BRSJU Obs: 0%
[2]; BRSNA, 50 g ai/ha
  % Visual Injury Obs: 0%
[2]; BRSNA, 100 g ai/ha
  % Visual Injury Obs: 0%
[2]; BRSNA, 200 g ai/ha
  % Visual Injury Obs: 0%
[2]; BRSNA, partner alone 50 g ai/ha
  Obs % visual injury: 0%
[2]; BRSNA, partner alone 100 g ai/ha
  Obs % visual injury: 0%
[2]; BRSNA, partner alone 200 g ai/ha
  Obs % visual injury: 0%
[2]; [10]
  % Visual Injury BRSNA Obs: 0%
[2]; quinclorac 50 g ai/ha alone
  % Visual Injury BRSNA Obs: 0%
[2]; quinclorac 100 g ai/ha alone
  % Visual Injury BRSNA Obs: 0%
[2]; quinclorac 200 g ai/ha alone
  % Visual Injury BRSNA Obs: 0%
[3]; BRSNN-NEX, 50 g ai/ha
  % Visual Injury Obs: 0%
[3]; BRSNN-NEX, 100 g ai/ha
  % Visual Injury Obs: 0%
[3]; BRSNN-NEX, 200 g ai/ha
  % Visual Injury Obs: 0%
[3]; BRSNN-NEX, partner alone 50 g ai/ha
  Obs % visual injury: 0%
[3]; BRSNN-NEX, partner alone 100 g ai/ha
  Obs % visual injury: 0%
[3]; BRSNN-NEX, partner alone 200 g ai/ha
  Obs % visual injury: 0%
[3]; [10]
  % Visual Injury BRSNN-NEX Obs: 0%
[3]; quinclorac 50 g ai/ha alone
  % Visual Injury BRSNN-NEX Obs: 0%
[3]; quinclorac 100 g ai/ha alone
  % Visual Injury BRSNN-NEX Obs: 0%
[3]; quinclorac 200 g ai/ha alone
  % Visual Injury BRSNN-NEX Obs: 0%
